According to patent US10106508B2, “Quinazoline heterocyclic compound as EGFR kinase inhibitor and preparation and application thereof” (BEIJING SCITECH-MQ PHARMACEUTICALS LIMITED, priority 2015, dated 2018):

Assays:
EGFR (WT) = EGFR (WT) (Homo sapiens (Human), UniProt P00533); assay: Kinase-Glo luminescent kinase assay, EGFR tyrosine kinase inhibitory activity (WT); format: biochemical; conditions: EGFR wild type
Description: (§1) Determination of the Compound Inhibitory Activity Against EGFR Kinase
(§2) The inhibitory activity of compounds in formula (I) and (II) were determined using Kinase-Glo luminescent kinase assay. The receptor tyrosine kinase EGFR was tested and Gefitinib, a known EGFR inhibitor, was chosen as the positive control compound. The method is detailed below:
(§3) The sample compounds were dissolved in DMSO and diluted it to 500 μM concentration with DMSO and transferred to a dose plate. The compounds were serially diluted with DMSO in 5 fold concentration. Then each concentration was diluted 10-fold with the reaction buffer to get a 10× final concentration. Transfer the compounds with concentrations ranging from 0.003 μM to 50 μM to EGFR assay plate to determine their kinase activity with a dose of 1 μL/well.
(§4) The positive control compound Gifitinib was dissolved in DMSO as 10 mM stock solution and diluted it to 100 μM concentration with DMSO. The control compound was serially diluted with DMSO in 5 fold concentration. Then each concentration was diluted 10-fold with the reaction buffer to get a 10× final concentration.
(§5) For the HPE (hundred percent effect: No kinase and no compound, but containing ATP, substrate and 1% DMSO) and ZPE (zero percent effect: No compound but containing kinase, ATP, substrate and 1% DMSO) wells, dilute 2 μL DMSO 10-fold with reaction buffer to obtain 10% DMSO solution. Then transfer it to the assay plat, 1 μL/well. The positive control wells contain kinase, ATP, substrate and positive control compound in different concentrations. The sample compound wells contain kinase, ATP, substrate and the compounds to be tested in different concentrations.
(§6) Preparation of the reagents in need: 4×ATP: dilute ATP 4 times with assay buffer to obtain a working solution; 4× substrate: dilute Poly ([…]: tyrosine) 4 times with assay buffer to obtain a working solution; 2.5×EGFR kinase: dilute EGFR kinase 2.5 times with assay buffer to obtain a working solution.
(§7) Kinase reaction: Add 10× compounds to the assay plate in a 384-well plate layout, 1 μL/well. For the HPE and ZPE wells, equal volume (1 μL/well) of 10% DMSO was added to the 384-well assay plate; Add 2.5×EGFR kinase into the assay plate in 384-well plate layout, 4 μL/well. For HPE and ZPE wells, an equal volume (4 μL/well) of assay buffer was added to the 384-well assay plate; Centrifuge the assay plate with 1000 rpm for 1 min to mix them; Pre-incubate the assay plate for 30 min at 30° C.; Mix equal volume of 4×ATP and 4× substrate to obtain 2×ATP-substrate mixture which serves as a reaction mixture for the determination of EGFR activity; Add 2×ATP-substrate mixture to the assay plate, 5 μL/well; Centrifuge the assay plate at 1000 rpm for 1 min to mix them; Incubate the assay plate for one hour at 30° C.; Add Kinase glo plus was to each well (10 μL/well), and then incubated the assay plate for 20 min at 27° C.; Read luminescence signal with Envision plate reader.

EGFR (T790M) = EGFR (T790M) (Homo sapiens (Human), UniProt P00533, T790M); assay: Kinase-Glo luminescent kinase assay, EGFR tyrosine kinase inhibitory activity (T790M); format: biochemical
EGFR (T790M), sequence (P00533 25-1210 T790M): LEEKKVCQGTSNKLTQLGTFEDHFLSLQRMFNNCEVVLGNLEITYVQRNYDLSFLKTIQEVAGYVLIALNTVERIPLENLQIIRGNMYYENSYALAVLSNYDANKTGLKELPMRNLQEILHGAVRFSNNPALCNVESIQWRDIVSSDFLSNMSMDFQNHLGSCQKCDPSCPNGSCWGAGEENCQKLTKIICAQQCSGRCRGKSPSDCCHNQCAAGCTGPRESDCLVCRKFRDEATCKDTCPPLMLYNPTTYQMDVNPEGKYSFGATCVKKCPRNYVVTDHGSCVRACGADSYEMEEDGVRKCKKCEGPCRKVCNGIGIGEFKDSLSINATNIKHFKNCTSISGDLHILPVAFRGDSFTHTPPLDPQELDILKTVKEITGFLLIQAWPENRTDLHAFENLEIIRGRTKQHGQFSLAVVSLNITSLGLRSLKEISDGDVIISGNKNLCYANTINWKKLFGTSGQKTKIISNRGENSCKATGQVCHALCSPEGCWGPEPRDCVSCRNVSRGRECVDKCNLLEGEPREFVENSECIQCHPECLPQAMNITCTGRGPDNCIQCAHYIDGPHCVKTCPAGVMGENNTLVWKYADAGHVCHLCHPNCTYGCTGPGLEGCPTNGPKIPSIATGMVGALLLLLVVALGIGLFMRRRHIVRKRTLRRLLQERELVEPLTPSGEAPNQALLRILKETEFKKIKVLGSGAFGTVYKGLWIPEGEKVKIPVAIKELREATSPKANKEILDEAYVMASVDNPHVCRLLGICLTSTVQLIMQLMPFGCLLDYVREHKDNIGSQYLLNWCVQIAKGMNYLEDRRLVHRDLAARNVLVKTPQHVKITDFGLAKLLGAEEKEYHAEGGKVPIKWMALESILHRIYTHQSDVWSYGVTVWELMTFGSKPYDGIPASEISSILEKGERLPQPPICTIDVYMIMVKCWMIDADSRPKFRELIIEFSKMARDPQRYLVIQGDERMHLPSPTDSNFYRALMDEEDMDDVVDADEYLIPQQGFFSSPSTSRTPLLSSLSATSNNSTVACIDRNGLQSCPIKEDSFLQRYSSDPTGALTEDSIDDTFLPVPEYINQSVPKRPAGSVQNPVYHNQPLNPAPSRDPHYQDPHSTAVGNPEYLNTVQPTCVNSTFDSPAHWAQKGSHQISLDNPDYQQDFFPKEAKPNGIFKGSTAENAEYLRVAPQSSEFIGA
Description: as §1, §2, §3, §4, §5, §6, §7

EGFR (WT), sequence (P00533 25-1210): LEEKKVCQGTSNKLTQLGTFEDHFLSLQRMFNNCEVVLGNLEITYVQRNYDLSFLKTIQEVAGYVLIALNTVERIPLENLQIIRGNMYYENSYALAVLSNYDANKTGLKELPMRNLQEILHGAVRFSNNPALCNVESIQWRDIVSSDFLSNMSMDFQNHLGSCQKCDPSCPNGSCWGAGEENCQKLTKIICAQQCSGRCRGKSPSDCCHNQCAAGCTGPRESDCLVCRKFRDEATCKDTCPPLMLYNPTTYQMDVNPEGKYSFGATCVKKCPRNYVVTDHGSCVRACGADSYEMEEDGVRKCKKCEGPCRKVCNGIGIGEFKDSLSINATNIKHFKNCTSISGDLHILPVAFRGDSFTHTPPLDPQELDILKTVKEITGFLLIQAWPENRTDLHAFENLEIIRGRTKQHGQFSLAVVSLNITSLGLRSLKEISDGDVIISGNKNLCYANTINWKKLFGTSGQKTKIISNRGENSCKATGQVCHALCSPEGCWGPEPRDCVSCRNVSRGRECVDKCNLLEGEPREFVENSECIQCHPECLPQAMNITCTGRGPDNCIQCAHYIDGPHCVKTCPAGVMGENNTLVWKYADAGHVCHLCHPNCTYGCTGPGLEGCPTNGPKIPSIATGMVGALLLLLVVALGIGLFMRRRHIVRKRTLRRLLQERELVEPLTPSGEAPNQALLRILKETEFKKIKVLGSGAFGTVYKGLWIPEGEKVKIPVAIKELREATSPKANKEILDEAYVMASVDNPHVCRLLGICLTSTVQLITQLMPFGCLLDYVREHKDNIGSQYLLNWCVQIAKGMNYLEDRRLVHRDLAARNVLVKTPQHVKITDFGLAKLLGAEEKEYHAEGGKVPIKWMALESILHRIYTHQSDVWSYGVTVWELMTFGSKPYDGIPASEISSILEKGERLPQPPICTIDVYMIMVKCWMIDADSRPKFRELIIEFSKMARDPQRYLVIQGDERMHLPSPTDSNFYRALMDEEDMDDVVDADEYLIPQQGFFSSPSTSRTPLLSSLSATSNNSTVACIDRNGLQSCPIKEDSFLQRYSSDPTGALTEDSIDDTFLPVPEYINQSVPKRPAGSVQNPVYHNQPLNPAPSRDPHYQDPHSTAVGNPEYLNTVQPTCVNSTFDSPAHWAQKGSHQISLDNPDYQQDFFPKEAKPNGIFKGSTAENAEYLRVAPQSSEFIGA

SMILES	IC50 (EGFR (WT))	IC50 (EGFR (T790M))
COc1ccc(Nc2ncnc3cc(OC(C)C)c4c(c23)OCCO4)cc1[N+](=O)[O-] [Compound I-1, 5-Isopropoxy-N-(4-methoxy-3-nitrophenyl)-2,3-dihydro-[1,4]dioxino[2,3-f]quinazolin-10-amine]	< 1 µM	< 1 µM
CC(C)Oc1cc2ncnc(Nc3ccc(F)c([N+](=O)[O-])c3)c2c2c1OCCO2 [Compound I-2, N-(4-Fluoro-3-nitrophenyl)-5-isopropoxy-2,3-dihydro-[1,4]dioxino[2,3-f]quinazolin-10-amine]	< 0.1 µM	< 1 µM
Cc1ccc(Nc2ncnc3cc(OC(C)C)c4c(c23)OCCO4)cc1[N+](=O)[O-] [Compound I-3, 5-Isopropoxy-N-(4-methyl-3-nitrophenyl)-2,3-dihydro-[1,4]dioxino[2,3-f]quinazolin-10-amine]	< 0.2 µM	< 1 µM
CC(C)Oc1cc2ncnc(Nc3ccc(Cl)c([N+](=O)[O-])c3)c2c2c1OCCO2 [Compound I-4, N-(4-Chloro-3-nitrophenyl)-5-isopropoxy-2,3-dihydro-[1,4]dioxino[2,3-f]quinazolin-10-amine]	< 0.1 µM	< 1 µM
CC(C)Oc1cc2ncnc(Nc3ccc(F)c(C#N)c3)c2c2c1OCCO2 [Compound I-5, 2-Fluoro-5-((5-isopropoxy-2,3-dihydro-[1,4]dioxino[2,3-f]quinazolin-10-yl)amino)benzonitrile]	< 0.3 µM	< 1 µM
Cc1ccc(Nc2ncnc3cc(OC(C)C)c4c(c23)OCCO4)cc1C#N [Compound I-6, 5-((5-Isopropoxy-2,3-dihydro-[1,4]dioxino[2,3-f]quinazolin-10-yl)amino)-2-methylbenzonitrile]	< 0.4 µM	< 1 µM
COCCOc1cc2ncnc(Nc3ccc(OC)c([N+](=O)[O-])c3)c2c2c1OCCO2 [Compound I-9, N-(4-Methoxy-3-nitrophenyl)-5-(2-methoxyethoxy)-2,3-dihydro-[1,4]dioxino[2,3-f]quinazolin-10-amine]	< 1 µM	< 1 µM
COCCOc1cc2ncnc(Nc3ccc(C)c([N+](=O)[O-])c3)c2c2c1OCCO2 [Compound I-11, 5-(2-Methoxyethoxy)-N-(4-methyl-3-nitrophenyl)-2,3-dihydro-[1,4]dioxino[2,3-f]quinazolin-10-amine]	< 0.1 µM	< 1 µM
COCCOc1cc2ncnc(Nc3ccc(Cl)c([N+](=O)[O-])c3)c2c2c1OCCO2 [Compound I-12, N-(4-Chloro-3-nitrophenyl)-5-(2-methoxyethoxy)-2,3-dihydro-[1,4]dioxino[2,3-f]quinazolin-10-amine]	< 0.05 µM	< 1 µM
COCCOc1cc2ncnc(Nc3ccc(F)c(C#N)c3)c2c2c1OCCO2 [Compound I-13, 2-Fluoro-5-((5-(2-methoxyethoxy)-2,3-dihydro-[1,4]dioxino[2,3-f]quinazolin-10-yl)amino)benzonitrile]	< 0.5 µM	< 1 µM
COCCOc1cc2ncnc(Nc3ccc(C)c(C#N)c3)c2c2c1OCCO2 [Compound I-14, 5-((5-(2-Methoxyethoxy)-2,3-dihydro-[1,4]dioxino[2,3-f]quinazolin-10-yl)amino)-2-methylbenzonitrile]	< 1 µM	< 1 µM

More lines, now with the values ahead:

IC50 (EGFR (WT))	IC50 (EGFR (T790M))	SMILES
< 1 µM	< 1 µM	CCOC(C)Oc1cc2ncnc(Nc3ccc(OC)c([N+](=O)[O-])c3)c2c2c1OCCO2 (stereo not drawn) [Compound I-15, 5-(1-Ethoxyethoxy)-N-(4-methoxy-3-nitrophenyl)-2,3-dihydro-[1,4]dioxino[2,3-f]quinazolin-10-amine]
< 0.3 µM	< 1 µM	CCOC(C)Oc1cc2ncnc(Nc3ccc(Cl)c([N+](=O)[O-])c3)c2c2c1OCCO2 (stereo not drawn) [Compound I-17, N-(4-Chloro-3-nitrophenyl)-5-(1-ethoxyethoxy)-2,3-dihydro-[1,4]dioxino[2,3-f]quinazolin-10-amine]
< 0.3 µM	< 1 µM	CCOC(C)Oc1cc2ncnc(Nc3ccc(C)c([N+](=O)[O-])c3)c2c2c1OCCO2 (stereo not drawn) [Compound I-18, 5-(1-Ethoxyethoxy)-N-(4-methyl-3-nitrophenyl)-2,3-dihydro-[1,4]dioxino[2,3-f]quinazolin-10-amine]
< 0.3 µM	< 1 µM	CCOC(C)Oc1cc2ncnc(Nc3ccc(F)c(C#N)c3)c2c2c1OCCO2 (stereo not drawn) [Compound I-19, 5-((5-(1-Ethoxyethoxy)-2,3-dihydro-[1,4]dioxino[2,3-f]quinazolin-10-yl)amino)-2-fluoro-benzonitrile]
< 1 µM	< 1 µM	CCOC(C)Oc1cc2ncnc(Nc3ccc(C)c(C#N)c3)c2c2c1OCCO2 (stereo not drawn) [Compound I-20, 5-((5-(1-Ethoxyethoxy)-2,3-dihydro-[1,4]dioxino[2,3-f]quinazolin-10-yl)amino)-2-methylbenzonitrile]
< 0.1 µM	< 0.3 µM	C#Cc1cccc(Nc2ncnc3cc(OC(C)COC)c4c(c23)OCCO4)c1 (stereo not drawn) [Compound I-26, N-(3-Ethynylphenyl)-5-(1-methoxypropan-2-yloxy)-2,3-dihydro-[1,4]dioxino[2,3-f]quinazolin-10-amine]
< 0.2 µM	< 1 µM	CC(C)Oc1cc2ncnc(Nc3ccc(OCc4cccc(F)c4)c(Cl)c3)c2c2c1OCCO2 [Compound I-27, N-(3-Chloro-4-((3-fluorobenzyl)oxy)phenyl)-5-isopropoxy-2,3-dihydro-[1,4]dioxino[2,3-f]quinazolin-10-amine]
< 0.05 µM	< 1 µM	C#Cc1cccc(Nc2ncnc3cc(OC)c4c(c23)OCCO4)c1 [Compound I-28, N-(3-Ethynylphenyl)-5-methoxy-2,3-dihydro-[1,4]dioxino[2,3-f]quinazolin-10-amine]
< 0.05 µM	< 1 µM	COc1cc2ncnc(Nc3ccc(F)c(Cl)c3)c2c2c1OCCO2 [Compound I-29, N-(3-Chloro-4-fluorophenyl)-5-methoxy-2,3-dihydro-[1,4]dioxino[2,3-f]quinazolin-10-amine]
< 0.05 µM	< 0.05 µM	C#Cc1cccc(Nc2ncnc3cc(OCCOC)c4c(c23)OCCO4)c1 [Compound I-31, N-(3-Ethynylphenyl)-5-(2-methoxyethoxy)-2,3-dihydro-[1,4]dioxino[2,3-f]quinazolin-10-amine]
< 0.2 µM	< 1 µM	COCCOc1cc2ncnc(Nc3ccc(F)cc3)c2c2c1OCCO2 [Compound I-32, N-(4-fluorophenyl)-5-(2-methoxyethoxy)-2,3-dihydro-[1,4]dioxino[2,3-f]quinazolin-10-amine]
< 0.05 µM	< 0.05 µM	CCOc1cc2ncnc(Nc3cccc([N+](=O)[O-])c3)c2c2c1OCCO2 [Compound I-38, 5-Ethoxy-N-(3-nitrophenyl)-2,3-dihydro-[1,4]dioxino[2,3-f]quinazolin-10-amine]
< 0.05 µM	< 1 µM	Fc1ccc(Nc2ncnc3cc(OCC4CCCO4)c4c(c23)OCCO4)cc1Cl (stereo not drawn) [Compound I-40, N-(3-Chloro-4-fluorophenyl)-5-((tetrahydrofuran-2-yl)methoxy)-2,3-dihydro-[1,4]dioxino[2,3-f]quinazolin-10-amine]
< 0.2 µM	< 1 µM	Cc1ccc(Nc2ncnc3cc4c(cc23)N(CCCN2CCOCC2)C(=O)CO4)cc1Cl [II-3, 4-((3-Chloro-4-methylphenyl)amino)-6-(3-morpholinopropyl)[1,4]oxazino[3,2-g]quinazolin-7(8H)-one]
< 0.2 µM	< 1 µM	COc1cccc(Nc2ncnc3cc4c(cc23)N(CCCN2CCOCC2)C(=O)CO4)c1 [II-4, 4-((3-Methoxyphenyl)amino)-6-(3-morpholinopropyl)-6H-[1,4]oxazino[3,2-g]quinazolin-7(8H)-one]
< 0.2 µM	< 1 µM	COc1ccc(Nc2ncnc3cc4c(cc23)N(CCCN2CCOCC2)C(=O)CO4)cc1OC [II-5, 4-((3,4-Dimethoxyphenyl)amino)-6-(3-morpholinopropyl)-6H-[1,4]oxazino[3,2-g]quinazolin-7(8H)-one]
